In article PMC10714400, “Antimicrobial Peptide–Peptoid Hybrids with and without Membrane Disruption” (ACS Infectious Diseases, 2023):
Where a SMILES comes first, the peptide text is derived from it. [ ]: non-standard residue; d: D form. Nleu = CC(C)CNCC(=O)O; Nlys = NCCCCNCC(=O)O

Experiments:
A549 cells = assay: Cell viability assay by Alamar blue; assay type: cell-based; settings: CSV; read-out: Toxicity on A549 lung cancern cells
Description: The data are represented as the mean value ± SD, n = 3. […] (c) Vesicle leakage assay for a selection of compounds. Lipid vesicles made of EYPG or EYPC were suspended in a buffer (10 mM TRIS, 107 mM NaCl, pH 7.4). After 45 s, the indicated compound was added to reach the desired concentration. After 240 s, 30 μL of 1.2% TritonX-100 was added for full fluorescein release. […] See Supporting Information for the full curves, all of the data, and procedures.
HEK293 cells were cultured and maintained in DMEM high glucose (Dulbecco’s modified Eagle medium, Sigma Aldrich) medium supplemented with 10% FBS (Sigma Aldrich) and 1% penicillin/streptomycin. A549 cells were cultured and maintained in RPMI-1640 medium (Sigma Aldrich), supplemented with 10% FBS (Sigma Aldrich) and 1% penicillin/streptomycin. The cells were handled and subcultured according to the manufacturer instructions. Cells were incubated in a humidified incubator at 37 °C in the presence of 5% CO2.
Assays on HEK293, A549 cells were performed as described earlier.[74] […]

P. aeruginosa PAO1 [1] = assay: NPN outer membrane permeability assay; assay type: cell-based, Pseudomonas aeruginosa
Description: (§1) Figure 5 Interactions of peptide–peptoid hybrids with bacterial outer and inner membranes of P. aeruginosa. (a, b) NPN outer membrane permeability assay. P. aeruginosa PAO1 bacteria were treated with increasing compound concentrations in the presence of 10 μM NPN. The fluorescence intensity (λex = 340 nm, λem = 415 nm) was measured within 5 min. Data represent the mean ± SD, n = 3. (c, d) DiSC3(5) inner membrane depolarization assay. P. aeruginosa PAO1 cells were treated with increasing compound concentrations in the presence of 2 μM DiSC3(5). The fluorescence intensity (λex = 610 nm, λem = 660 nm) was measured within 5 min after treatment, and the data represent mean ± SD, n = 3.
(§2) A single colony of P. aeruginosa PAO1 and E. coli W3110 was grown overnight while being shaken (150 rpm) in LB-broth (5 mL) at 37 °C. 100 μL of the overnight culture was regrown in 10 mL of LB broth with shaking (200 rpm) to the exponential phase (OD600 = 1, corresponding to 10^9 CFU/mL). Bacteria were washed three times with HEPES buffer (5 mM HEPES, 5 mM glucose, pH 7.4), but not diluted yet to their final concentration. 200 μL of peptide samples was added to the first well of 96-well plates (black wells, flat bottom, BRAND GmbH Wertheim, Germany), 100 μL of HEPES/glucose buffer with 10 μM N-phenyl-1-naphthylamine (NPN, purchased from Acros Organics) was added in all the wells, and the compounds were diluted serially by 1/2 (add a control with a final volume of 200 μL with 10 μM NPN in buffer only). Ca. 10 min before the measurement and the final dilution of the bacteria, the plates and the 10 μM NPN in HEPES/glucose buffer (for bacteria dilution) were incubated at 37 °C (prior to the dilution of the bacteria with buffer containing NPN 10 μM). Later, the bacteria were diluted to OD600 = 0.5 with the NPN in HEPES/glucose buffer. 100 μL of the bacterial suspension was added to each well. In this case, the final OD of bacteria was 0.25, the final concentration of the desired compound 64 μg/mL, and NPN 10 μM. The control wells are buffer containing NPN (10 μM, 200 μL) and bacterial suspension containing NPN in HEPES buffer. The plate was measured with a Tecan instrument Infinite M1000 within 5 min. The plate was enabled to shake for 5 s before measurement. The excitation wavelength used was 340 ± 5 nm, and emission wavelength was 415 ± 5 nm. The assay was repeated at least three times.

E. coli W3110 [2] = assay: NPN outer membrane permeability assay; assay type: cell-based, Escherichia coli
Description: as §1, with “Figure 4” for “Figure 5”, “of E. coli.” for “of P. aeruginosa.”, “assay. E. coli W3110” for “assay. P. aeruginosa PAO1”, “represent” for “represent the”, “assay. E. coli W3110 bacteria” for “assay. P. aeruginosa PAO1 cells”
as §2

E. coli W3110 [3] = assay: DiSC3(5) inner membrane depolarization assay; assay type: cell-based, Escherichia coli; settings: E. coli W3110, 2 μM DiSC3(5)
Description: as §1, with “Figure 4” for “Figure 5”, “of E. coli.” for “of P. aeruginosa.”, “assay. E. coli W3110” for “assay. P. aeruginosa PAO1”, “represent” for “represent the”, “assay. E. coli W3110 bacteria” for “assay. P. aeruginosa PAO1 cells”
A single colony of P. aeruginosa PAO1 and E. coli W3110 was grown overnight with shaking (150 rpm) in LB broth (5 mL) at 37 °C. A 100 μL portion of the overnight culture was regrown in 10 mL of LB broth with shaking (200 rpm) to the exponential phase (OD600 = 1, corresponding to 10^9 CFU/mL). Bacteria were washed once with HEPES buffer (5 mM HEPES, 5 mM glucose, pH 7.4) and diluted to an OD600 = 0.5. Stock solution of 10 mM of 3,3′-dipropylthiadicarbocyanine iodide (DiSC3(5), purchased from Sigma) was prepared in DMSO. Stock solutions of 2 mg/mL of the compounds were prepared in sterilized milli-Q water and diluted to the beginning concentration of 128 μg/mL in 200 μL of HEPES buffer containing 4 μM of the fluorescent probe DiSC3(5). The diluted samples were added to the first well of 96-well plates (black wells, flat bottom, BRAND GmbH Wertheim, Germany) and diluted serially by 1/2. 100 μL of the bacterial suspension in HEPES buffer (without fluorophore) was added to each well. In this case, the final OD of bacteria was 0.25, the final concentration of peptide in the first column was 64 μg/mL, and DiSC3(5) was 2 μM. The control wells are buffer containing DiSC3(5) and bacterial suspension containing DiSC3(5) in HEPES buffer. The plate was measured with a Tecan instrument Infinite M1000 within 5 min. […] The assay was measured in triplicate and repeated at least two times.[65],[75]

P. aeruginosa PAO1 [4] = assay: Time–kill assay; assay type: cell-based, Pseudomonas aeruginosa
Description: Figure 1 Killing profile of selected compounds on bacteria a) against E. coli W3110 measured in full MH at pH 7.4, b) against P. aeruginosa PAO1 in full MH at pH 7.4, c) against E. coli W3110 in diluted MH at pH 8.5, and d) against P. aeruginosa PAO1 in dilute MH at pH 8.5. The assay was repeated twice in triplicate, and the data represent the mean ± SD, n = 6.

[5] = P. aeruginosa PAO1, dilute MH at pH 8.5

Compound	IC50 (A549 cells) [µM]	Inner membrane depolarization (DiSC3(5)) (E. coli W3110 [3])	Outer membrane permeabilization (NPN) (P. aeruginosa PAO1 [1]; not told)	Outer membrane permeabilization (NPN) (E. coli W3110 [2]; not told)	also measured
CC(C)C[C@H](NC(=O)[C@H](CCCCN)NC(=O)CNCCCCN)C(=O)N[C@@H](CC(C)C)C(=O)N[C@@H](CCCCN)C(=O)N[C@@H](CC(C)C)C(=O)N[C@@H](CC(C)C)C(=O)N[C@@H](CCCCN)C(=O)N[C@@H](CC(C)C)C(=O)N[C@@H](CC(C)C)C(=O)N(CC(N)=O)CC(C)C [EB1] (H-[Nlys]KLLKLLKLL[Nleu]-NH2; N-terminus assumed)	69 ± 2	–	–	–	–
CC(C)CN(CC(N)=O)C(=O)CN(CC(C)C)C(=O)CN(CC(C)C)C(=O)CN(CCCCN)C(=O)CN(CC(C)C)C(=O)CN(CC(C)C)C(=O)CN(CCCCN)C(=O)CN(CC(C)C)C(=O)CN(CC(C)C)C(=O)CN(CCCCN)C(=O)CNCCCCN [EB11, kkllkllklll] (H-[Nlys][Nlys][Nleu][Nleu][Nlys][Nleu][Nleu][Nlys][Nleu][Nleu][Nleu]-NH2)	–	partly depolarized the inner membrane	–	–	Outer membrane permeabilization (NPN) (P. aeruginosa PAO1 [1]; P. aeruginosa PAO1, 10 μM NPN): significant outer membrane permeabilization; Outer membrane permeabilization (NPN) (E. coli W3110 [2]; E. coli W3110, 10 μM NPN): significant outer membrane permeabilization; Time–kill, killing profile (P. aeruginosa PAO1 [4]; [5]): killed P. aeruginosa, however at a rather slow rate
CC(C)C[C@H](NC(=O)CN(CC(C)C)C(=O)[C@H](CC(C)C)NC(=O)CN(CCCCN)C(=O)[C@H](CC(C)C)NC(=O)CN(CC(C)C)C(=O)[C@H](CCCCN)NC(=O)CN(CC(C)C)C(=O)[C@H](CC(C)C)NC(=O)CN(CCCCN)C(=O)[C@@H](N)CCCCN)C(N)=O [EB9, KkLlKlLkLlL] (H-K[Nlys]L[Nleu]K[Nleu]L[Nlys]L[Nleu]L-NH2)	–	partly depolarized the inner membrane	significant outer membrane permeabilization	significant outer membrane permeabilization	Time–kill, killing profile (P. aeruginosa PAO1 [4]; [5]): killed P. aeruginosa, however at a rather slow rate
H-KKLLKLLKLLL-NH2 [ln65, reference compound]	20 ± 1	–	–	–	–
CC(C)C[C@H](NC(=O)[C@H](CC(C)C)NC(=O)[C@H](CC(C)C)NC(=O)[C@@H](CCCCN)NC(=O)[C@H](CC(C)C)NC(=O)[C@H](CC(C)C)NC(=O)[C@@H](CCCCN)NC(=O)[C@H](CC(C)C)NC(=O)[C@H](CC(C)C)NC(=O)[C@@H](CCCCN)NC(=O)[C@H](N)CCCCN)C(N)=O [ln69, kkLLkLLkLLL, reference compound] (H-[dK][dK]LL[dK]LL[dK]LLL-NH2)	21 ± 3	–	–	–	–
CC(C)C[C@H](NC(=O)[C@H](CC(C)C)NC(=O)[C@H](CC(C)C)NC(=O)[C@H](CCCCN)NC(=O)[C@H](CC(C)C)NC(=O)[C@H](CC(C)C)NC(=O)CN(CCCCN)C(=O)CN(CC(C)C)C(=O)CN(CC(C)C)C(=O)CN(CCCCN)C(=O)CNCCCCN)C(N)=O [EB5, kkllkLLKLLL] (H-[Nlys][Nlys][Nleu][Nleu][Nlys]LLKLLL-NH2)	–	–	permeabilized the outer membrane	permeabilized the outer membrane	–
CC(C)C[C@H](NC(=O)[C@H](CC(C)C)NC(=O)[C@H](CC(C)C)NC(=O)[C@H](CCCCN)NC(=O)[C@H](CC(C)C)NC(=O)[C@H](CC(C)C)NC(=O)CN(CCCCN)C(=O)[C@H](CC(C)C)NC(=O)[C@H](CC(C)C)NC(=O)CN(CCCCN)C(=O)CNCCCCN)C(N)=O [EB6, kkLLkLLKLLL] (H-[Nlys][Nlys]LL[Nlys]LLKLLL-NH2)	19 ± 1	strongly depolarized the inner membrane	permeabilized the outer membrane	permeabilized the outer membrane	Time–kill, killing profile (P. aeruginosa PAO1 [4]; P. aeruginosa PAO1, full MH at pH 7.4): completely killed
